Test results as given in patent US20130150325A1, “3-(Fluorovinyl)pyrazoles and their use” (BAYER INTELLECTUAL PROPERTY GMBH, priority 2011, published 2013).

System: HCT 116 cells transfected with a luciferase reporter under the control of an HIF-responsive sequence
Experiment: HIF-luciferase assay
Assay type: cell-based
Conditions: Homo sapiens; HCT 116 HIF-luciferase reporter cells, hypoxia chamber (1% O2), 24 h; in some cases means of up to four individual determinations
Protocol: HCT 116 cells were transfected in a stable manner with a plasmid which contained a luciferase reporter under the control of an HIF-responsive sequence. These cells were sown in microtitre plates [20 000 cells/cavity in RPMI 1640 medium with 10% foetal calf serum (FCS) and 100 μg/ml of hygromycin]. Incubation was carried out overnight under standard conditions (5% CO2, 21% O2, 37° C., moistened). The following morning the cells were incubated with various concentrations of the test substances (0-10 μmol/l) in a hypoxia chamber (1% O2). After 24 h, Bright Glo reagent (Promega, Wisconsin, USA) was added in accordance with the manufacturer's instructions, and after 5 min the luminescence was measured. Cells which were incubated under normoxia served as background controls.
The IC50 values from this assay for representative working examples are listed in the following table (in same cases as means of up to four individual determinations): […]

| SMILES | IC50 [nM] |
| --- | --- |
| Cc1ccc(Cn2nc(/C(F)=C/c3ccc(OC(F)(F)F)cc3)cc2C)cc1 [Example 2, 3-{(Z)-1-Fluoro-2-[4-(trifluoromethoxy)phenyl]vinyl}-5-methyl-1-(4-methylbenzyl)-1H-pyrazole] | 30 |
| Cc1ccc(Cn2nc(/C(F)=C/c3ccc(N4CC(C)OC(C)C4)nc3)cc2C)cc1 (stereo not shown) [Example 4, 4-(5-{(Z)-2-Fluoro-2-[5-methyl-1-(4-methylbenzyl)-1H-pyrazol-3-yl]vinyl}pyridin-2-yl)-2,6-dimethylmorpholine] | 2 |
| Cc1cc(/C(F)=C/c2ccc(C(C)(C)C(F)(F)F)cc2)nn1Cc1cccc(Br)c1 [Example 7, 1-(3-Bromobenzyl)-3-{(Z)-1-fluoro-2-[4-(1,1,1-trifluoro-2-methylpropan-2-yl)phenyl]vinyl}-5-methyl-1H-pyrazole] | 40 |
| Cc1cc(/C(F)=C/c2ccc(OC(F)(F)F)cc2)nn1Cc1cccc(N2CCC(C#N)CC2)c1 [Example 9, 1-{3-[(3-{(Z)-1-Fluoro-2-[4-(trifluoromethoxy)phenyl]vinyl}-5-methyl-1H-pyrazol-1-yl)-methyl]phenyl}piperidine-4-carbonitrile] | 0.4 |
| Cc1cc(/C(F)=C/c2ccc(C(C)(C)C(F)(F)F)cc2)nn1Cc1cccc(N2CCC(C#N)CC2)c1 [Example 10, 1-{3-[(3-{(Z)-1-Fluoro-2-[4-(1,1,1-trifluoro-2-methylpropan-2-yl)phenyl]vinyl}-5-methyl-1H-pyrazol-1-yl)methyl]phenyl}piperidine-4-carbonitrite] | 0.4 |
| Cc1cc(/C(F)=C/c2ccc(C3(C(F)(F)F)CC3)cc2)nn1Cc1cccc(N2CCC(C#N)CC2)c1 [Example 11, 1-[3-({3-[(Z)-1-Fluoro-2-{4-[1-(trifluoromethyl)cyclopropyl]phenyl}vinyl]-5-methyl-1H-pyrazol-1-yl}methyl)phenyl]piperidine-4-carbonitrile] | 0.2 |
| Cc1cc(/C(F)=C/c2ccc(OC(F)(F)F)cc2)nn1Cc1cccc(N2CCC(O)CC2)c1 [Example 12, 1-{3-[(3-{(Z)-1-Fluoro-2-[4-(trifluoromethoxy)phenyl]vinyl}-5-methyl-1H-pyrazol-1-yl)methyl]phenyl}piperidin-4-ol] | 0.3 |
| Cc1cc(/C(F)=C/c2ccc(C(C)(C)C(F)(F)F)cc2)nn1Cc1cccc(N2CCC(O)CC2)c1 [Example 13, 1-{3-[(3-{(Z)-1-Fluoro-2-[4-(1,1,1-trifluoro-2-methylpropan-2-yl)phenyl]vinyl}-5-methyl-1H-pyrazol-1-yl)methyl]phenyl}piperidin-4-ol] | 0.5 |
| Cc1cc(/C(F)=C/c2ccc(C3(C(F)(F)F)CC3)cc2)nn1Cc1cccc(N2CCC(O)CC2)c1 [Example 14, 1-[3-({3-[(Z)-1-Fluoro-2-{4-[1-(trifluoromethyl)cyclopropyl]phenyl}vinyl]-5-methyl-1H-pyrazol-1-yl}methyl)phenyl]piperidin-4-ol] | 0.2 |
| Cc1cc(/C(F)=C/c2ccc(OC(F)(F)F)cc2)nn1Cc1cccc(N2CC(O)C2)c1 [Example 15, 1-{3-[(3-{(Z)-1-Fluoro-2-[4-(trifluoromethoxy)phenyl]vinyl}-5-methyl-1H-pyrazol-1-yl)methyl]phenyl}azetidin-3-ol] | 2 |
| Cc1cc(/C(F)=C/c2ccc(C(C)(C)C(F)(F)F)cc2)nn1Cc1cccc(N2CC(O)C2)c1 [Example 16, 1-{3-[(3-{(Z)-1-Fluoro-2-[4-(1,1,1-trifluoro-2-methylpropan-2-yl)phenyl]vinyl}-5-methyl-1H-pyrazol-1-yl)methyl]phenyl}azetidin-3-ol] | 0.5 |
| Cc1cc(/C(F)=C/c2ccc(C3(C(F)(F)F)CC3)cc2)nn1Cc1cccc(N2CC(O)C2)c1 [Example 17, 1-[3-({3-[(Z)-1-Fluoro-2-{4-[1-(trifluoromethyl)cyclopropyl]phenyl}vinyl]-5-methyl-1H-pyrazol-1-yl}methyl)phenyl]azetidin-3-ol] | 1 |
| COC(=O)c1cccc(Cn2nc(/C(F)=C/c3ccc(OC(F)(F)F)cc3)cc2C)c1 [Example 18, Methyl 3-[(3-{(Z)-1-fluoro-2-[4-(trifluoromethoxy)phenyl]vinyl}-5-methyl-1H-pyrazol-1-yl)methyl]benzoate] | 20 |
